Assay results published in US8426365B2, “Method of treating or preventing tissue deterioration, injury or damage due to congestive heart failure” (Regenerx Biopharmaceuticals, Inc., priority 2005, dated 2013).

Legend:
[1] = test system: mouse MI-induced heart failure model; assay: Mouse myocardial infarction (MI) heart failure model; format: in vivo, C57 black mice; details: 150 μg/mouse i.p. immediately after MI, then every three days for 4 weeks
Description: The procedures used in this study are exactly same as that reported in Nature (432:466-472, 2004). Briefly, C57 black mice, 14 weeks old, were used in this study. Mice were given thymosin β4 (Bachem, Lot #FTHYB40501B) (150 μg/mouse) immediately after myocardial infarction and then every three days for 4 weeks by i.p. injection. The parameters of this study included cardiac morphology and function by echocardiography (echo), invasive cardiac function measurement using Millar catheter, survival rate, and histochemical analysis.

[2] = test system: normal (BL10) mice; assay: Grip strength meter, normal (BL10) mice; format: in vivo; details: BL10 treated
Description: (§1) Four groups of mice were treated with thymosin beta 4. Group 1 was normal mice (BL10) that were given placebo (untreated). Group 2 was normal mice that were treated with thymosin beta 4. Group 3 was dystrophin deficient (mdx) mice treated with placebo and Group 4 was mdx mice treated with thymosin beta 4. Mice were treated with 150 micrograms of thymosin beta 4 in 300 microliters of buffer given intraperitoneally twice a week and placebo mice were given 300 microliters of buffer only. The mice exercised on a treadmill at a speed of 12 meters/minute for 30 minutes twice a week. Functional, behavioral and echocardiographic data were obtained at baseline and after 2 months, 4 months and 6 months of treatment.
(§2) Functional data were non-invasive measurements of skeletal muscle function. The muscle strength of the forelimbs and hindlimbs was assessed using a grip strength meter. The animals were allowed to hold onto the meter platform and then were slowly pulled until they lost their grip. The amount of force needed to free the grip was recorded. Multiple measurements were taken for each mouse at each time point. The same protocol was followed for hindlimb muscle strength. Another functional assessment was the Rotarod test. Here, mice were placed on a rotating bar and kept their balance and position as the bar rotated with increasing speed (10 RPM for 1 minute and then increased 0.2 RPM over the next three minutes). The time until the mouse falls was measured. This test was also repeated multiple times.

[3] = test system: dystrophin deficient (mdx) mice; assay: Grip strength meter, dystrophin deficient (mdx) mice; format: in vivo; details: Mdx treated
Description: as §1, §2

[4] = test system: normal (BL10) mice; assay: VersaMax animal activity monitoring, normal (BL10) mice; format: in vivo; details: BL10 treated
Description: as §1
(§3) Behavioral data was collected using the VersaMax™ animal activity monitoring system. Mice were placed in a monitored box and activity was quantified by different sensors. Data includes horizontal activity, vertical activity and total distance traveled and many other activity parameters were measured. Multiple measurements were made over a 3 day period.

[5] = test system: dystrophin deficient (mdx) mice; assay: VersaMax animal activity monitoring, dystrophin deficient (mdx) mice; format: in vivo; details: Mdx treated
Description: as §1, §3

[6] = test system: normal (BL10) mice; assay: Rotarod test, normal (BL10) mice; format: in vivo; details: BL10 treated, time until the mouse falls
Description: as §1
as §2, with “Here, mice were placed on a rotating bar and kept their balance and position as the bar rotated with increasing speed (10 RPM for 1 minute and then increased 0.2 RPM over the next three minutes).” left out, “This test was also repeated multiple times.” left out

[7] = test system: dystrophin deficient (mdx) mice; assay: Rotarod test, dystrophin deficient (mdx) mice; format: in vivo; details: Mdx treated, time until the mouse falls
Description: as §1
as §2, with “Here, mice were placed on a rotating bar and kept their balance and position as the bar rotated with increasing speed (10 RPM for 1 minute and then increased 0.2 RPM over the next three minutes).” left out, “This test was also repeated multiple times.” left out

[8] = test system: heart attack in the mouse model; details: administered immediately following a heart attack; Nature 2004; cited from earlier work
[9] = 2 month, 150 micrograms i.p. twice a week

Substance: thymosin beta 4 (SDKPDMAEIEKFDKSKLKKTETQEKNPLPSKETIEQEKQAGES; Thymosin beta-4; UniProt P62328 2-44, looked up) [43 amino acid, 4.9 kDa ubiquitous polypeptide originally isolated from the thymus]
- left ventricular end diastolic pressure (LVEDP) [1]: significantly reduced
- left ventricular end diastolic volume [1]: significantly attenuated
- left ventricular end systolic volume [1]: significantly attenuated
- left ventricular systolic pressure (LVSP) [1]: showed a trend in improvement (i.e., a reduction)
- rate of change (velocity) in left ventricular pressure-rise with time (dP/dt) [1]: significantly improved
- rate of change (velocity) in left ventricular relaxation [1]: showed a trend in affecting (improving)
- pulmonary edema (lung weight) ([1]; listed as TB4): significantly attenuated
- thickening of left ventricle / heart muscle (heart weight) ([1]; listed as TB4): significantly attenuated
- Avg max forelimb strength [2, 9]: 5.73 KGF/kg
- Avg max hindlimb strength [2, 9]: 9.18 KGF/kg
- Avg max forelimb strength ([2]; Baseline): 5.57 KGF/kg
- Avg max hindlimb strength ([2]; Baseline): 7.35 KGF/kg
- Avg max forelimb strength [3, 9]: 3.78 KGF/kg
- Avg max hindlimb strength [3, 9]: 7.29 KGF/kg
- Avg max forelimb strength ([3]; Baseline): 4.46 KGF/kg
- Avg max hindlimb strength ([3]; Baseline): 6.29 KGF/kg
- Avg horizontal activity [4, 9]: 1287
- Avg movement time [4, 9]: 27 s
- Avg total distance [4, 9]: 239 cm
- Avg vertical activity [4, 9]: 13.1
- Avg horizontal activity ([4]; Baseline): 1761
- Avg movement time ([4]; Baseline): 41 s
- Avg total distance ([4]; Baseline): 375 cm
- Avg vertical activity ([4]; Baseline): 28
- Avg horizontal activity [5, 9]: 961
- Avg movement time [5, 9]: 18.9 s
- Avg total distance [5, 9]: 167 cm
- Avg vertical activity [5, 9]: 8.2
- Avg horizontal activity ([5]; Baseline): 1071
- Avg movement time ([5]; Baseline): 25 s
- Avg total distance ([5]; Baseline): 209 cm
- Avg vertical activity ([5]; Baseline): 12
- Rotorod [6, 9]: 191
- Rotorod ([6]; Baseline): 214
- Rotorod [7, 9]: 147
- Rotorod ([7]; Baseline): 211
- ejection fraction [8]: able to improve
- fractional shortening [8]: able to improve
